Assay results: patent US20090305994A1, “Compounds Modulating Vegf Receptor and Uses Thereof” (priority 2005, published 2009)

Molecular target: T1, Flt-1 (Bos taurus, UniProt F1MDD9)
T1 construct: we immunoprecipitated total KDR and Flt-1 from BAEC whole extracts; endogenous in cells; host or cells: BAEC (bovine aorta endothelial cells, SV40-immortalized)
T1 sequence (F1MDD9 1-1251): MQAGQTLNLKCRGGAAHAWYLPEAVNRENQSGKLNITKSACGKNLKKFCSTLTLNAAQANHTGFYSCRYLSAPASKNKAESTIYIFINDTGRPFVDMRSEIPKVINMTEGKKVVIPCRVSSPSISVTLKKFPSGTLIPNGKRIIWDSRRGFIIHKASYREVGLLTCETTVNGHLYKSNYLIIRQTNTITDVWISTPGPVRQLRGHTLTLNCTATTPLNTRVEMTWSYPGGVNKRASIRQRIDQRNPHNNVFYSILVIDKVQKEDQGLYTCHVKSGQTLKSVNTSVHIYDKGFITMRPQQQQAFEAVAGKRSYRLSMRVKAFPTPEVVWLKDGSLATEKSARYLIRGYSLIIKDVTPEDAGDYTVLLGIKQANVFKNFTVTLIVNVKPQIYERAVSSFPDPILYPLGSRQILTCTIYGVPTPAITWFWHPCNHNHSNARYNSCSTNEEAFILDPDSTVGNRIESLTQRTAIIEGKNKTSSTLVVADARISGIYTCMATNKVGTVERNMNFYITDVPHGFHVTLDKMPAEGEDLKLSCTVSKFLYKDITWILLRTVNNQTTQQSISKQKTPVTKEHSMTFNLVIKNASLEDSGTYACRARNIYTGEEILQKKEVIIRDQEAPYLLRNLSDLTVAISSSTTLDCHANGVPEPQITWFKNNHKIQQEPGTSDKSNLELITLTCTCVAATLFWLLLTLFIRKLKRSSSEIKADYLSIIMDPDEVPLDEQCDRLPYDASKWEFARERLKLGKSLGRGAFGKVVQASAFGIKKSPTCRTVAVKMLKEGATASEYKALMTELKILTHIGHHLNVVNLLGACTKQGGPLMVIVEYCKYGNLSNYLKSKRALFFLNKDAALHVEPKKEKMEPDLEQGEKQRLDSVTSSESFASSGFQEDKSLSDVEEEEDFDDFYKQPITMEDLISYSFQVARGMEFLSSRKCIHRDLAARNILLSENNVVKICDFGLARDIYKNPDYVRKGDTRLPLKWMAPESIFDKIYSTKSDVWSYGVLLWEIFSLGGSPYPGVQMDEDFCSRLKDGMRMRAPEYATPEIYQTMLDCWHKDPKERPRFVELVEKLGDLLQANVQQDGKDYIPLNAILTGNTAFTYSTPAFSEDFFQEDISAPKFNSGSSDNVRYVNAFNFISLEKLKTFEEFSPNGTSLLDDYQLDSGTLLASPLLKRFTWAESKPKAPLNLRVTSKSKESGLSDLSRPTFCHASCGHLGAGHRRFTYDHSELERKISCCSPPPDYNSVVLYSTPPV
Assay: Flt-1 activation (immunoprecipitation, phospho-tyrosine western blot) in BAEC
Type: cell-based, bovine
Settings: 15 minutes of exposure
Experimental: VEGF receptors binding and activation. a) VEGF competitive binding on BAEC. 1 μg of membrane protein was plated with QK and [^125I]-VEGF (500000 cpm, 10^−10 M). b) KDR activation. After stimulation total KDR was immunoprecipitated from a whole-cell protein extracts and phospho-tyrosine was visualized by a specific antibody, anti-rabbit HRP-conjugated secondary antibody and standard chemiluminescence. c) Flt-1 activation. After stimulation total Flt-1 was immunoprecipitated from a whole-cell protein extracts and phospho-tyrosine was visualized by specific antibody, anti-rabbit HRP-conjugated secondary antibody and standard chemiluminescence.
Western blot. Cells were plated on six-well dishes and serum starved overnight. On the next day, cells were treated with different amount of peptide in absence or in presence of VEGF165 for 15 minutes at 37° C. and then dissolved in RIPA-SDS buffer (50 mM Tris-HCl (pH 7.5), 150 mM NaCl, 1% NP-40, 0.25% deoxycholate, 9.4 mg/50 ml sodium orthovanadate, […]). In some experiments, total KDR and Flt-1 were immunoprecipitated from an equal amount of whole-cell protein extracts using protein A/G agarose beads conjugated with antibodies raised against total KDR or Flt-1 (R&D). Proteins from whole-cell extracts or immunocomplexes were resolved by PAGE and transferred to nitrocellulose. […]

Sequence: KLTWQELYQLKYKGI [QK]
- Flt-1 phosphorylation: increased the levels of phosphorylation of Flt-1
